Measurements as given in the CheMixHub drug solubility set.

Test: xn = mol fraction of the nth substance listed, in the solute-free solvent

N#CC(c1ccc(Cl)cc1)c1c(Cl)cc(-n2ncc(=O)[nH]c2=O)cc1Cl (stereo not given) + CC(C)=O + CCO
solubility (g/100 g solution)
Settings | 283.15 K | 288.15 K | 293.15 K | 298.15 K | 303.15 K | 308.15 K | 313.15 K | 318.15 K | 323.15 K
x2 = 0.1655 | 2.81 | 3.32 | 3.87 | 4.51 | 5.25 | 6.03 | 6.91 | 7.89 | 8.92
x2 = 0.3459 | 4.12 | 4.81 | 5.56 | 6.42 | 7.41 | 8.46 | 9.6 | 10.9 | 12.2
x2 = 0.5434 | 5.39 | 6.26 | 7.2 | 8.24 | 9.47 | 10.8 | 12.2 | 13.7 | 15.2
x2 = 0.7604 | 6.63 | 7.67 | 8.77 | 10 | 11.4 | 13 | 14.6 | 16.3 | 18.1

Cc1cc(Cl)cc(C(=O)O)c1N + CC(C)=O + CO
solubility (g/100 g solution)
Settings | 278.15 K | 283.15 K | 288.15 K | 293.15 K | 298.15 K | 303.15 K | 308.15 K | 313.15 K | 318.15 K | 323.15 K
x2 = 0.0885 | 1.19 | 1.38 | 1.68 | 1.99 | 2.4 | 2.86 | 3.39 | 4.09 | 4.87 | 5.8
x2 = 0.1908 | 1.63 | 1.86 | 2.21 | 2.59 | 3.05 | 3.58 | 4.22 | 5.04 | 5.96 | 7.04
x2 = 0.3105 | 2.08 | 2.33 | 2.75 | 3.19 | 3.7 | 4.29 | 5.04 | 5.98 | 7.04 | 8.27
x2 = 0.4522 | 2.52 | 2.8 | 3.28 | 3.79 | 4.35 | 5.01 | 5.85 | 6.92 | 8.12 | 9.48
x2 = 0.6228 | 2.96 | 3.27 | 3.81 | 4.39 | 4.99 | 5.71 | 6.66 | 7.84 | 9.18 | 10.7
x2 = 0.832 | 3.4 | 3.74 | 4.34 | 4.98 | 5.64 | 6.42 | 7.47 | 8.77 | 10.2 | 11.9

O=CC(O)C(O)C(O)CO (stereo not given) + CC(C)O + CCCCCC
solubility (g/100 g solution)
Settings | x2 = 0.1 | x2 = 0.2 | x2 = 0.3 | x2 = 0.4 | x2 = 0.5 | x2 = 0.6 | x2 = 0.7 | x2 = 0.8 | x2 = 0.9
283.15 K | 0.0751 | 0.111 | 0.142 | 0.164 | 0.188 | 0.271 | 0.405 | 0.615 | 0.82
293.15 K | 0.0952 | 0.126 | 0.198 | 0.238 | 0.307 | 0.453 | 0.646 | 0.819 | 1.12
303.15 K | 0.112 | 0.13 | 0.233 | 0.362 | 0.471 | 0.665 | 1 | 1.4 | 2.1
313.15 K | 0.129 | 0.16 | 0.277 | 0.518 | 0.76 | 1.08 | 1.61 | 2.29 | 3.38
323.15 K | 0.14 | 0.247 | 0.388 | 0.792 | 1.16 | 1.83 | 2.77 | 4 | 6.03

CC1CCC2(C(=O)O)CCC3(C)C(=CCC4C5(C)CCC(O)C(C)(C)C5CCC43C)C2C1C (stereo not given) + CC(C)O + O
solubility (g/100 g solution)
Settings | 293.15 K | 298.15 K | 303.15 K | 308.15 K | 313.15 K | 318.15 K | 323.15 K | 328.15 K | 333.15 K
x2 = 0.0908 | 0.00219 | 0.00363 | 0.00394 | 0.00575 | 0.00586 | 0.00613 | 0.00653 | 0.00668 | 0.0109
x2 = 0.1389 | 0.00363 | 0.00474 | 0.00741 | 0.00959 | 0.0147 | 0.0158 | 0.0187 | 0.036 | 0.0388
x2 = 0.1969 | 0.0293 | 0.0352 | 0.0473 | 0.0614 | 0.0752 | 0.0821 | 0.0985 | 0.111 | 0.13
x2 = 0.2681 | 0.0944 | 0.118 | 0.13 | 0.142 | 0.158 | 0.22 | 0.239 | 0.282 | 0.33
x2 = 0.3575 | 0.146 | 0.195 | 0.236 | 0.284 | 0.359 | 0.387 | 0.493 | 0.514 | 0.656
x2 = 0.4734 | 0.171 | 0.276 | 0.328 | 0.378 | 0.529 | 0.672 | 1.01 | 1.16 | 1.21
